Data on 16 compounds can be found in patent US9290476B2, “Methylene linked quinolinyl modulators of RORγt” (Janssen Pharmaceutica NV, priority 2012, dated 2016).

Counter-ions that a name gives are not always drawn. Like-named read-outs stand apart in the source and are kept apart here.

In test [1] the target is human RORγt ligand binding domain (RORγt LBD) (Homo sapiens (Human), UniProt P51449). The test can be described thus: RORγt ThermoFluor assay (thermal shift binding affinity). The note with it: estimated from thermal shift. In short, it runs like this:
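Thermal shift used 0.065 mg/mL RORγt LBD with 60 μM 1,8-ANS in 100 mM Hepes pH 7.0, 10 mM NaCl, 2.5 mM GSH and 0.002% Tween-20, heated at 1 °C/min. Fluorescence was excited at 380–400 nm and emission read at 500 nm.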

A further test concerns the target human RORγt LBD (Homo sapiens (Human), UniProt P51449). Nature of the test: RORγt reporter assay (GAL4-RORγt LBD luciferase in HEK293T cells). The format is cell-based. The note with it: for RORγt reporter Assay, % inhibition @ 6 μM / IC50: HEK293T cells; for IC50: 24 hours compound treatment; for inhibition at 6 µM: HEK-293T, read-out: RORγt reporter Assay, % inhibition @ 6 μM, HEK293T cells, 6 μM. In short, it runs like this:
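HEK293T cells transiently co-transfected with GAL4-DBD–wild-type human RORγt LBD (pBIND) and GAL4-responsive firefly luciferase reporter (pGL4.31); renilla luciferase from pBIND normalises transfection/viability. Cells in phenol-red-free DMEM, 5% lipid-reduced FCS, treated with compound 24 h. Firefly/renilla ratio plotted against compound concentration.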

For test [2], the system named is IL-17 production by CD4 T cells. Nature of the test: Human Th17 assay (IL-17 production by CD4 T cells under Th17 differentiation). The format is cell-based. The note with it: human CD4+ T cells, IL-17 after 3 days, read-out: Human Th17 Assay, IC50 μM. An excerpt:
The human Th17 assay tests the effect of RORγt modulatory compounds on IL-17 production by CD4 T cells under conditions which favor Th17 differentiation.
Total CD4^+ T cells were isolated from the peripheral blood mononuclear cells (PBMC) of healthy donors using a CD4^+ T cell isolation kit II, following the manufacturer's instructions (Miltenyi Biotec). Cells were resuspended in a medium of RPMI-1640 supplemented with 10% fetal bovine serum, penicillin, streptomycin, glutamate, and β-mercaptoethanol and were added to 96-well plates at 1.5×10^5 per 100 μL per well. 50 μL of compound at titrated concentrations in DMSO were added into each well at final DMSO concentration at 0.2%. Cells were incubated for 1 hour, then 50 μL of Th17 cell differentiation medium was added to each well. The final concentrations of antibodies and cytokines (R&D Systems) in differentiation medium were: 3×10^6/mL anti-CD3/CD28 beads (prepared using human T cell activation/expansion kit, Miltenyi Biotec), 10 μg/mL anti-IL4, 10 μg/mL anti-IFNγ, 10 ng/mL IL1β, 10 ng/mL IL23, 50 ng/mL IL6, 3 ng/mL TGFβ and 20 U/mL IL2. Cells were cultured at 37° C. and 5% CO2 for 3 days. Supernatants were collected and the accumulated IL-17 in culture was measured by using MULTI-SPOT® Cytokine Plate following manufacture's instruction (Meso Scale Discovery). The plate was read using Sector Imager 6000, and IL-17 concentration was extrapolated from the standard curve. The IC50s were determined by GraphPad.

Chain of human RORγt ligand binding domain (RORγt LBD) (P51449 other isoform, or with tags, fused parts or gaps): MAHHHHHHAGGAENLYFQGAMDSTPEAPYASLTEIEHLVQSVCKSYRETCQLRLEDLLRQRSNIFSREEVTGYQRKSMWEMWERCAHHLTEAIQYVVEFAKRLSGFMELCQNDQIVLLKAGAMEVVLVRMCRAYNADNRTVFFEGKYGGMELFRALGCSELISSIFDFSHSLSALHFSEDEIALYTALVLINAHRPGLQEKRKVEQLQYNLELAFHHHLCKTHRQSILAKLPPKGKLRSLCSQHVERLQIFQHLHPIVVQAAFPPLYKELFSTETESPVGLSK
Chain of human RORγt LBD (P51449 258-518): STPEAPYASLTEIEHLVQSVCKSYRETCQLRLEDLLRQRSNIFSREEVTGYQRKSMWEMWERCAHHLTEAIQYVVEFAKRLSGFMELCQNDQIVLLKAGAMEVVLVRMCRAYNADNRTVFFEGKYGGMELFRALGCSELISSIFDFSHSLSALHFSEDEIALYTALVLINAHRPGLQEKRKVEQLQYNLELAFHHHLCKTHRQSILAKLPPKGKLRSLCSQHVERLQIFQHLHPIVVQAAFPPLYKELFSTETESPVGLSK

Take `Cn1cncc1C(O)(c1ccc(C(F)(F)F)nc1)c1ccc2nc(N3CCC3)c(Cc3ccc(-n4cccn4)cc3)c(Cl)c2c1` (single isomer, unassigned) [Example 68C, (3-(4-(1H-pyrazol-1-yl)benzyl)-2-(azetidin-1-yl)-4-chloroquinolin-6-yl)(1-methyl-1H-imidazol-5-yl)(6-(trifluoromethyl)pyridin-3-yl)methanol]: the Kd in test [1] is 30 nM. For the same compound, at human RORγt LBD, the “RORγt reporter Assay, % inhibition @ 6 μM” value is on record as 100% and half-maximal inhibition (IC50) required 0.21 µM. In addition, the IC50 in test [2] came out at 0.2 µM.
Turning to `OC(c1cccnc1)(c1ccc2nc(Cl)c(Cc3ccc(Cl)cc3)c(Cl)c2c1)c1cncs1` (stereo not shown) [Example 9, (2,4-Dichloro-3-(4-chlorobenzyl)quinolin-6-yl)(pyridin-3-yl)(thiazol-5-yl)methanol.TFA], in test [1], the Kd was 0.83 nM. Moreover, on human RORγt LBD, the 50% inhibitory concentration (IC50) is 0.0065 µM and the inhibition at 6 µM is 85%. Besides, the 50% inhibitory concentration (IC50) in test [2] (Homo sapiens, CD4+ T, 72 h) came out at 0.085 µM.
Take `COc1nc2ccc(C(O)(c3ccc(C#N)cc3)c3cncn3C)cc2c(C#N)c1Cc1ccc(-n2cccn2)cc1` (single isomer, unassigned) [Example 76C, 3-(4-(1H-Pyrazol-1-yl)benzyl)-6-((4-cyanophenyl)(hydroxy)(1-methyl-1H-imidazol-5-yl)methyl)-2-methoxyquinoline-4-carbonitrile]: the Kd in test [1] is 15 nM. At human RORγt LBD, the “RORγt reporter Assay, % inhibition @ 6 μM” value is listed as 101%. For the same compound, the half-inhibitory concentration (IC50) against human RORγt LBD amounted to 0.045 µM; in test [2] (Homo sapiens, CD4+ T, 72 h), 0.033 µM.
`COc1nc2ccc(C(O)(c3sc(C)nc3C)c3cnnn3C)cc2c(Cl)c1Cc1ccc(C(F)(F)F)cc1` (stereo not shown) [Example 79C, (4-Chloro-2-methoxy-3-(4-(trifluoromethyl)benzyl)quinolin-6-yl)(2,4-dimethylthiazol-5-yl)(1-methyl-1H-1,2,3-triazol-5-yl)methanol]: the equilibrium dissociation constant (Kd) in test [1] is 0.024 nM. In addition, the IC50 on human RORγt LBD came to 0.0025 µM; in test [2] (Homo sapiens, CD4+ T, 72 h) it was 0.0015 µM. The inhibition at 6 µM on human RORγt LBD worked out at 94%.
In the case of `Cn1cncc1C(O)(c1ccc(C(F)(F)F)nc1)c1ccc2nc(N3CCC3)c(Cc3ccc(C(F)(F)F)cc3)c(Cl)c2c1` (single isomer, unassigned) [Example 92C, (2-(Azetidin-1-yl)-4-chloro-3-(4-(trifluoromethyl)benzyl)quinolin-6-yl)(1-methyl-1H-imidazol-5-yl)(6-(trifluoromethyl)pyridin-3-yl)methanol], in test [1], the Kd was 1.4 nM. On human RORγt LBD, the “RORγt reporter Assay, % inhibition @ 6 μM” value came to 97% and the IC50 was 0.017 µM. In addition, in test [2], the IC50 stood at 0.0086 µM.
Consider `Cn1cncc1C(O)(c1ccc2nc(Cl)c(Cc3ccc(-n4cccn4)cc3)c(Cl)c2c1)c1cncn1C` [Example 30, (3-(4-(1H-Pyrazol-1-yl)benzyl)-2,4-dichloroquinolin-6-yl)bis(1-methyl-1H-imidazol-5-yl)methanol.TFA], for which the Kd in test [1] is 2.2 nM. Moreover, on human RORγt LBD, it took 0.025 µM to reach half-maximal inhibition (IC50) and the inhibition at 6 µM was 98%. Also, in test [2] (Homo sapiens, CD4+ T, 72 h), the IC50 is 0.063 µM.
`Cc1cc(C(O)(c2ccc(Cl)cc2)c2cncn2C)cc2c(Cl)c(Cc3ccc(-n4cccn4)cc3)c(Cl)nc12` (stereo not shown) [Example 27, (3-(4-(1H-Pyrazol-1-yl)benzyl)-2,4-dichloro-8-methylquinolin-6-yl)(4-chlorophenyl)(1-methyl-1H-imidazol-5-yl)methanol.TFA salt]: on human RORγt LBD, the “RORγt reporter Assay, % inhibition @ 6 μM” value is reported as 97% and the IC50 came out at 0.29 µM. In test [2], the IC50 is 0.3 µM.
With `COc1nc2ccc(C(O)(c3cnnn3C)c3cnc(C)n3C)cc2c(Cl)c1Cc1ccc(C(F)(F)F)cc1` (single isomer, unassigned) [Example 80B, (4-chloro-2-methoxy-3-(4-(trifluoromethyl)benzyl)quinolin-6-yl)(1,2-dimethyl-1H-imidazol-5-yl)(1-methyl-1H-1,2,3-triazol-5-yl)methanol], the inhibition at 6 µM at human RORγt LBD turned out to be 92%. Besides, in test [2], the IC50 stood at 0.05 µM.
As to `COc1nc2ccc(C(O)(c3ccc(Cl)cc3)c3cncn3C)cc2c(Cl)c1Cc1ccc(-n2cncn2)cc1` (single isomer, unassigned) [Example 64C, (3-(4-(1H-1,2,4-triazol-1-yl)benzyl)-4-chloro-2-methoxyquinolin-6-yl)(4-chlorophenyl)(1-methyl-1H-imidazol-5-yl)methanol], the “RORγt reporter Assay, % inhibition @ 6 μM” value at human RORγt LBD is listed as 94%. Besides, the half-maximal inhibitory concentration (IC50) in test [2] (Homo sapiens, CD4+ T, 72 h) is 0.086 µM.
`Cn1cncc1C(O)(c1ccc(C(F)(F)F)nc1)c1ccc2nc(C#N)c(Cc3ccc(-n4cccn4)cc3)c(C#N)c2c1` (single isomer, unassigned) [Example 72C, 3-(4-(1H-Pyrazol-1-yl)benzyl)-6-(hydroxy(1-methyl-1H-imidazol-5-yl)(6-(trifluoromethyl)pyridin-3-yl)methyl)quinoline-2,4-dicarbonitrile]: the inhibition at 6 µM at human RORγt LBD came to 100%. In addition, the IC50 in test [2] (Homo sapiens, CD4+ T, 72 h) amounted to 0.055 µM.
As to `COc1nc2ccc(C(O)(c3ccc(C)nc3C)c3cnnn3C)cc2c(Cl)c1Cc1ccc(C(F)(F)F)cc1` (single isomer, unassigned) [Example 77B, (4-chloro-2-methoxy-3-(4-(trifluoromethyl)benzyl)quinolin-6-yl)(2,6-dimethylpyridin-3-yl)(1-methyl-1H-1,2,3-triazol-5-yl)methanol], the inhibition at 6 µM on human RORγt LBD was found to be 98%. The IC50 in test [2] is 0.36 µM.
Take `COc1nc2ccc(C(O)(c3ccc(C)nc3C)c3cnnn3C)cc2c(Cl)c1Cc1ccc(C(F)(F)F)cc1` (single isomer, unassigned) [Example 77C, (4-chloro-2-methoxy-3-(4-(trifluoromethyl)benzyl)quinolin-6-yl)(2,6-dimethylpyridin-3-yl)(1-methyl-1H-1,2,3-triazol-5-yl)methanol]: the “RORγt reporter Assay, % inhibition @ 6 μM” value at human RORγt LBD stood at 100%. The IC50 in test [2] came out at 0.0021 µM.
With `Cn1cncc1C(O)(c1ccc2nc(Cl)c(Cc3ccc(-n4cccn4)cc3)c(Cl)c2c1)c1cncs1` (stereo not shown) [Example 15, (3-(4-(1H-Pyrazol-1-yl)benzyl)-2,4-dichloroquinolin-6-yl)(1-methyl-1H-imidazol-5-yl)(thiazol-5-yl)methanol.TFA], on human RORγt LBD, the IC50 is 0.013 µM and the inhibition at 6 µM was found to be 104%. Further, in test [2] (Homo sapiens, CD4+ T, 72 h), the IC50 worked out at 0.024 µM.
Take `CCc1nc2ccc(C(O)(c3cnnn3C)C3CN(S(C)(=O)=O)C3)cc2c(Cl)c1Cc1ccc(C(F)(F)F)cc1` (single isomer, unassigned) [Example 91B, (4-Chloro-2-ethyl-3-(4-(trifluoromethyl)benzyl)quinolin-6-yl)(1-methyl-1H-1,2,3-triazol-5-yl)(1-(methylsulfonyl)azetidin-3-yl)methanol]: the inhibition at 6 µM at human RORγt LBD was found to be 97%. Further, the IC50 in test [2] is 0.022 µM.
In the case of `COc1nc2ccc(C(O)(c3ccc(C)nc3C)c3cnnn3C)cc2c(C#N)c1Cc1ccc(C(F)(F)F)cc1` (single isomer, unassigned) [Example 78C, 6-((2,6-Dimethylpyridin-3-yl)(hydroxy)(1-methyl-1H-1,2,3-triazol-5-yl)methyl)-2-methoxy-3-(4-(trifluoromethyl)benzyl)quinoline-4-carbonitrile], the “RORγt reporter Assay, % inhibition @ 6 μM” value on human RORγt LBD is 99%. In addition, the IC50 in test [2] (Homo sapiens, CD4+ T, 72 h) was 0.004 µM.
With `Cn1cncc1C(O)(c1ccc(C(F)(F)F)nc1)c1ccc2nc(C#N)c(Cc3ccc(-n4cccn4)cc3)c(C#N)c2c1` (stereo not shown) [Example 72B, 3-(4-(1H-Pyrazol-1-yl)benzyl)-6-(hydroxy(1-methyl-1H-imidazol-5-yl)(6-(trifluoromethyl)pyridin-3-yl)methyl)quinoline-2,4-dicarbonitrile], the inhibition at 6 µM at human RORγt LBD turned out to be 99%. Also, the IC50 in test [2] (Homo sapiens, CD4+ T, 72 h) came out at 0.025 µM.
